Laboratory results reported in PubChem BioAssay AID1963864 (Molecular Pharmacology Branch, DTP, NCI, 2024).

System: KRAS PDC multicell spheroid viability
Test: Anticancer human tumor 521955-158-R6-J3-PDC patient-derived pancreatic carcinoma cell line growth inhibition [KRAS2]
Conditions: for IC50: curve of first compound; for viability, T/C: stronger effect = lower value
How it was run: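 KRAS-mutant tumor cells were grown as spheroids with HUVEC endothelial cells and human MSCs as stroma. Targeted agents were tested alone and with KRAS pathway inhibitors. Doses started at or near clinical Cmax, or 10 microM, descending half-log.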

[1] = second compound 0.1 µM, first compound 0.0316 µM
[2] = second compound 0.1 µM, first compound 0.1 µM
[3] = second compound 0.1 µM, first compound 0.316 µM
[4] = second compound 0.1 µM, first compound 1 µM
[5] = second compound 0.1 µM, first compound 3.16 µM
[6] = second compound 0.1 µM, first compound 10 µM
[7] = second compound 0.316 µM, first compound 0.0316 µM
[8] = second compound 0.316 µM, first compound 0.1 µM
[9] = second compound 0.316 µM, first compound 0.316 µM
[10] = second compound 0.316 µM, first compound 1 µM
[11] = second compound 0.316 µM, first compound 3.16 µM
[12] = second compound 0.316 µM, first compound 10 µM
[13] = second compound 1 µM, first compound 0.0316 µM
[14] = second compound 1 µM, first compound 0.1 µM
[15] = second compound 1 µM, first compound 0.316 µM
[16] = second compound 1 µM, first compound 1 µM
[17] = second compound 1 µM, first compound 3.16 µM
[18] = second compound 1 µM, first compound 10 µM
[19] = second compound 3.16 µM, first compound 0.0316 µM
[20] = second compound 3.16 µM, first compound 0.1 µM
[21] = second compound 3.16 µM, first compound 0.316 µM
[22] = second compound 3.16 µM, first compound 1 µM
[23] = second compound 3.16 µM, first compound 3.16 µM
[24] = second compound 3.16 µM, first compound 10 µM
[25] = second compound 10 µM, first compound 0.0316 µM
[26] = second compound 10 µM, first compound 0.1 µM
[27] = second compound 10 µM, first compound 0.316 µM
[28] = second compound 10 µM, first compound 1 µM
[29] = second compound 10 µM, first compound 3.16 µM
[30] = second compound 10 µM, first compound 10 µM
[31] = second compound 0.1 µM, first compound 0.00316 µM
[32] = second compound 0.1 µM, first compound 0.01 µM
[33] = second compound 0.316 µM, first compound 0.00316 µM
[34] = second compound 0.316 µM, first compound 0.01 µM
[35] = second compound 1 µM, first compound 0.00316 µM
[36] = second compound 1 µM, first compound 0.01 µM
[37] = second compound 3.16 µM, first compound 0.00316 µM
[38] = second compound 3.16 µM, first compound 0.01 µM
[39] = second compound 10 µM, first compound 0.00316 µM
[40] = second compound 10 µM, first compound 0.01 µM
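Note: drug exposure lasted seven days.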
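Throughout, for viability, T/C: 100% = DMSO vehicle wells and lower means fewer viable cells.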

## CC(C)NCC(C(=O)N1CCN(c2ncnc3c2C(C)CC3O)CC1)c1ccc(Cl)cc1 (stereo not given) + CNCc1ccccc1-c1csc(C(C)Nc2nc(C)nc3cc(OC)c(OC)cc23)c1
Second compound 0.1 µM
  IC50: > 10000 nM
Second compound 0.316 µM
  IC50: > 10000 nM
Second compound 1 µM
  IC50: > 10000 nM
Second compound 3.16 µM
  IC50: < 31.6 nM
Second compound 10 µM
  IC50: < 31.6 nM
[1]
  viability, T/C: 88.1%
[2]
  viability, T/C: 84.2%
[3]
  viability, T/C: 74.7%
[4]
  viability, T/C: 69.8%
[5]
  viability, T/C: 80.4%
[6]
  viability, T/C: 70.2%
[7]
  viability, T/C: 74.9%
[8]
  viability, T/C: 80%
[9]
  viability, T/C: 64.8%
[10]
  viability, T/C: 64.5%
[11]
  viability, T/C: 66.7%
[12]
  viability, T/C: 63%
[13]
  viability, T/C: 77.6%
[14]
  viability, T/C: 62.7%
[15]
  viability, T/C: 67.6%
[16]
  viability, T/C: 64.3%
[17]
  viability, T/C: 66.9%
[18]
  viability, T/C: 61.4%
[19]
  viability, T/C: 0.31%
[20]
  viability, T/C: 0.37%
[21]
  viability, T/C: 0.26%
[22]
  viability, T/C: 0.31%
[23]
  viability, T/C: 1.96%
[24]
  viability, T/C: 0.86%
[25]
  viability, T/C: 0.16%
[26]
  viability, T/C: 0.14%
[27]
  viability, T/C: 0.24%
[28]
  viability, T/C: 0.25%
[29]
  viability, T/C: 0.16%
[30]
  viability, T/C: 0.27%

## CCN1CCN(Cc2ccc(Nc3ncc(F)c(-c4cc(F)c5nc(C)n(C(C)C)c5c4)n3)nc2)CC1 + CNCc1ccccc1-c1csc(C(C)Nc2nc(C)nc3cc(OC)c(OC)cc23)c1
Second compound 0.1 µM
  IC50: > 1000 nM
Second compound 0.316 µM
  IC50: > 1000 nM
Second compound 1 µM
  IC50: 317 nM
Second compound 3.16 µM
  IC50: < 3.16 nM
Second compound 10 µM
  IC50: < 3.16 nM
[31]
  viability, T/C: 75.1%
[32]
  viability, T/C: 77.8%
[1]
  viability, T/C: 70.5%
[2]
  viability, T/C: 67.1%
[3]
  viability, T/C: 72.1%
[4]
  viability, T/C: 102%
[33]
  viability, T/C: 77.7%
[34]
  viability, T/C: 71.9%
[7]
  viability, T/C: 74.1%
[8]
  viability, T/C: 68%
[9]
  viability, T/C: 67.5%
[10]
  viability, T/C: 80.2%
[35]
  viability, T/C: 66.8%
[36]
  viability, T/C: 70.3%
[13]
  viability, T/C: 63.5%
[14]
  viability, T/C: 53.8%
[15]
  viability, T/C: 54.8%
[16]
  viability, T/C: 30.8%
[37]
  viability, T/C: 0.3%
[38]
  viability, T/C: 0.38%
[19]
  viability, T/C: 0.51%
[20]
  viability, T/C: 0.75%
[21]
  viability, T/C: 0.45%
[22]
  viability, T/C: 0.37%
[39]
  viability, T/C: 0.25%
[40]
  viability, T/C: 0.26%
[25]
  viability, T/C: 0.3%
[26]
  viability, T/C: 0.21%
[27]
  viability, T/C: 0.22%
[28]
  viability, T/C: 0.46%

## CCNC(=O)CC1N=C(c2ccc(Cl)cc2)c2cc(OC)ccc2-n2c(C)nnc21 (stereo not given) + CNCc1ccccc1-c1csc(C(C)Nc2nc(C)nc3cc(OC)c(OC)cc23)c1
Second compound 0.1 µM
  IC50: > 10000 nM
Second compound 0.316 µM
  IC50: > 10000 nM
Second compound 1 µM
  IC50: > 10000 nM
Second compound 3.16 µM
  IC50: < 31.6 nM
Second compound 10 µM
  IC50: < 31.6 nM
[1]
  viability, T/C: 96.3%
[2]
  viability, T/C: 90.5%
[3]
  viability, T/C: 67.6%
[4]
  viability, T/C: 69.5%
[5]
  viability, T/C: 68.1%
[6]
  viability, T/C: 73.8%
[7]
  viability, T/C: 82.3%
[8]
  viability, T/C: 71.9%
[9]
  viability, T/C: 72.4%
[10]
  viability, T/C: 61%
[11]
  viability, T/C: 65.8%
[12]
  viability, T/C: 69.5%
[13]
  viability, T/C: 71.3%
[14]
  viability, T/C: 62%
[15]
  viability, T/C: 61.6%
[16]
  viability, T/C: 62.8%
[17]
  viability, T/C: 74.3%
[18]
  viability, T/C: 73%
[19]
  viability, T/C: 0.29%
[20]
  viability, T/C: 0.34%
[21]
  viability, T/C: 0.34%
[22]
  viability, T/C: 0.43%
[23]
  viability, T/C: 0.28%
[24]
  viability, T/C: 0.8%
[25]
  viability, T/C: 0.2%
[26]
  viability, T/C: 0.18%
[27]
  viability, T/C: 0.16%
[28]
  viability, T/C: 0.17%
[29]
  viability, T/C: 0.21%
[30]
  viability, T/C: 0.28%

## Cn1ncnc1[C@H]1c2n[nH]c(=O)c3cc(F)cc(c23)N[C@@H]1c1ccc(F)cc1 + CNCc1ccccc1-c1csc(C(C)Nc2nc(C)nc3cc(OC)c(OC)cc23)c1
Second compound 0.1 µM
  IC50: > 100 nM
Second compound 0.316 µM
  IC50: > 100 nM
Second compound 1 µM
  IC50: > 100 nM
Second compound 3.16 µM
  IC50: < 0.316 nM
Second compound 10 µM
  IC50: < 0.316 nM
Second compound 0.1 µM, first compound 0.000316 µM
  viability, T/C: 96.3%
Second compound 0.1 µM, first compound 0.001 µM
  viability, T/C: 93.7%
[31]
  viability, T/C: 85.5%
[32]
  viability, T/C: 92.1%
[1]
  viability, T/C: 85.9%
[2]
  viability, T/C: 90.6%
Second compound 0.316 µM, first compound 0.000316 µM
  viability, T/C: 89.1%
Second compound 0.316 µM, first compound 0.001 µM
  viability, T/C: 82.2%
[33]
  viability, T/C: 91.1%
[34]
  viability, T/C: 80%
[7]
  viability, T/C: 80.5%
[8]
  viability, T/C: 72.2%
Second compound 1 µM, first compound 0.000316 µM
  viability, T/C: 68.3%
Second compound 1 µM, first compound 0.001 µM
  viability, T/C: 78.4%
[35]
  viability, T/C: 72.2%
[36]
  viability, T/C: 74.4%
[13]
  viability, T/C: 78.4%
[14]
  viability, T/C: 70.2%
Second compound 3.16 µM, first compound 0.000316 µM
  viability, T/C: 0.28%
Second compound 3.16 µM, first compound 0.001 µM
  viability, T/C: 2.23%
[37]
  viability, T/C: 0.7%
[38]
  viability, T/C: 0.93%
[19]
  viability, T/C: 1.22%
[20]
  viability, T/C: 1.42%
Second compound 10 µM, first compound 0.000316 µM
  viability, T/C: 0.15%
Second compound 10 µM, first compound 0.001 µM
  viability, T/C: 0.17%
[39]
  viability, T/C: 0.15%
[40]
  viability, T/C: 0.86%
[25]
  viability, T/C: 0.21%
[26]
  viability, T/C: 0.26%
